Measured values as given in article PMC5034817 (Journal of Neurochemistry, 2015).
Values joined by “and” are separate entries in the source; they are usually repeats but may differ in a detail not shown here. Equal values may be shown once. “Also recorded” adds a separate entry of the source.

B1: Goα, endogenous rat brain (natural protein, rat (endogenous in rat brain), UniProt P59215 1-354, looked up)
chain: MGCTLSAEERAALERSKAIEKNLKEDGISAAKDVKLLLLGAGESGKSTIVKQMKIIHEDGFSGEDVKQYKPVVYSNTIQSLAAIVRAMDTLGVEYGDKERKADSKMVCDVVSRMEDTEPFSAELLSAMMRLWGDSGIQECFNRSREYQLNDSAKYYLDSLDRIGAADYQPTEQDILRTRVKTTGIVETHFTFKNLHFRLFDVGGQRSERKKWIHCFEDVTAIIFCVALSGYDQVLHEDETTNRMHESLMLFDSICNNKFFIDTSIILFLNKKDLFGEKIKKSPLTICFPEYPGSNTYEDAAAYIQTQFESKNRSPNKEIYCHMTCATDTNNIQVVFDAVTDIIIANNLRGCGLY
B2: His6RGS4 (recombinant regulator of G protein signaling 4) (natural protein, UniProt P49799 1-205, looked up)
chain: MCKGLAGLPASCLRSAKDMKHRLGFLLQKSDSCEHSSSHSKKDKVVTCQRVSQEEVKKWAESLENLINHECGLAAFKAFLKSEYSEENIDFWISCEEYKKIKSPSKLSPKAKKIYNEFISVQATKEVNLDSCTREETSRNMLEPTITCFDEAQKKIFNLMEKDSYRRFLKSRFYLDLTNPSSCGAEKQKGAKSSADCTSLVPQCA
B3: RGS4: recombinant regulator of G protein signaling 4, His6-tagged, expressed in JM109 E. coli (protein)
chain: B2 chain
modifications: left off: His6, end not stated, kept

How the values were obtained:
MOR/G protein complex = MOR/G protein complex (Rattus norvegicus, UniProt P33535); assay: Co-immunoprecipitation of Goα with MOR using anti-MOR349-398; type: biochemical; conditions: 1 µM DAMGO; IP with anti-MOR349-398; Figure S2c
mu opioid receptor = mu opioid receptor (Homo sapiens, UniProt P35372); assay: biochemical
MOR = MOR (Homo sapiens, UniProt P35372); type: biochemical; conditions: presence of 1 μM RGS4
Goα = Goα (Rattus norvegicus, UniProt P59215); assay: His6RGS4/Ni2+-NTA agarose pull-down of Goα from solubilized rat brain membranes; type: biochemical; conditions: for effect on association of Goα with His6RGS4: 100 μM GDP or 10 μM GTP alone
[1] = molecular target: rat mu opioid receptor (MOR)/G protein complex (Rattus norvegicus, UniProt P33535+P59215); assay: Co-immunoprecipitation of Goα and RGS4 with solubilized MOR; type: biochemical; conditions: for amount of RGS4 co-immunoprecipitated with MOR: 1 μM DAMGO, 0.3 μM RGS4
[2] = system: RGS4 mRNA levels in the locus coeruleus; conditions: 6 days of chronic morphine administration; ref Gold et al. 2003; cited from earlier work
[3] = molecular target: B2; assay: pull-down
[4] = molecular target: mu opioid receptor (MOR), endogenous rat brain (rat, UniProt P33535 1-398); assay: co-IP
Go/Gi-type G proteins = type: biochemical, human; conditions: RGS4 added

Sequence of rat mu opioid receptor (MOR)/G protein complex (P33535 whole entry, one chain of several): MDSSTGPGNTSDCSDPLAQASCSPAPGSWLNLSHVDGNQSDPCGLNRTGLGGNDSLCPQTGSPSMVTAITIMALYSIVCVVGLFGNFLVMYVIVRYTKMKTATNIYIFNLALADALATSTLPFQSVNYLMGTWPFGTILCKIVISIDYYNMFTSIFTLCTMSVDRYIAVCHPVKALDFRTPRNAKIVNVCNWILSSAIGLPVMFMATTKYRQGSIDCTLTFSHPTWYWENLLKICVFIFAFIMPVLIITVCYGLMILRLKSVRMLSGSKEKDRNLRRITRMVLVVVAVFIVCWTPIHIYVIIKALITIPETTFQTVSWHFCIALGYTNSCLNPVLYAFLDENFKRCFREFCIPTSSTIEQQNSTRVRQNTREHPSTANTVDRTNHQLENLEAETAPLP
Sequence of mu opioid receptor (P35372 whole entry): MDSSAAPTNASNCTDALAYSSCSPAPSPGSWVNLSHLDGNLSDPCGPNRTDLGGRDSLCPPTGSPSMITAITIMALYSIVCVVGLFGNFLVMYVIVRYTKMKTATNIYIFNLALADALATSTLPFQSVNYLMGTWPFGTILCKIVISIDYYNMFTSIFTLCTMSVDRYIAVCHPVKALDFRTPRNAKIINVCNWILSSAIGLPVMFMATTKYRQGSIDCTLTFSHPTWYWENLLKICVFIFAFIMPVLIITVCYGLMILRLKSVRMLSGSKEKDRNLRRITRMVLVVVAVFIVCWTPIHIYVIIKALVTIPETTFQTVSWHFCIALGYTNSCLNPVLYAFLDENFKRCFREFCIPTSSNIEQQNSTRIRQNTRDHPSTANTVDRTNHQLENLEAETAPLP
Sequence of MOR/G protein complex (P33535 whole entry, one chain of several): as the sequence (P33535 whole entry, one chain of several) above
Sequence of mu opioid receptor (MOR), endogenous rat brain (P33535 whole entry): as the sequence (P33535 whole entry, one chain of several) above
Sequence of MOR (P35372 whole entry): as the sequence (P35372 whole entry) above

For `C[C@@H](NC(=O)[C@@H](N)Cc1ccc(O)cc1)C(=O)NCC(=O)N(C)[C@@H](Cc1ccccc1)C(=O)NCCO` [DAMGO, [D‐Ala^2, N‐Me‐Phe^4, Gly^5‐ol] enkephalin], the “increase in Goα co-immunoprecipitating with MOR” value (MOR/G protein complex) was about 2 fold, the “inhibition of forskolin-stimulated adenylyl cyclase activity” value (mu opioid receptor) was 21.8% ± 2.27 and the “maximal inhibition, adenylyl cyclase activity reduced to” value (mu opioid receptor) was 3.28 pmoles cAMP formed in 10 min and 3.92 pmoles cAMP formed in 10 min. For the same molecule, the inhibition at 1 µM (mu opioid receptor; read-out: inhibition of adenylyl cyclase activity) was 60.4 ± 2.97%, the “maximal amount of [35S]GTPγS bound (Bmax)” value (MOR) was 1319 ± 82 dpm and the “effect on binding of Goα to RGS4” value (Goα; 1 μM DAMGO alone, without guanine nucleotide) was “did not affect”. For the same molecule, the “Goα molecules whose affinity for GDP is decreased by MOR activation” value (Goα; DAMGO with 100 μM GDP and 0.3 μM GTPγS) was 40–50% and the “increase in RGS4 co-immunoprecipitating with MOR” value ([1]; DAMGO during immunoprecipitation vs no addition) was 50% and 53%.

In the case of `Nc1nc2c(ncn2[C@@H]2O[C@H](COP(=O)(O)OP(=O)(O)OP(=O)(O)O)[C@@H](O)[C@H]2O)c(=O)[nH]1` [GTP], the “effect on association of Goα with His6RGS4” value (Goα) is reported as “failed to affect; also recorded: Neither 100 μM GDP nor 10 μM GTP affected; also recorded: neither GTP nor GDP had an effect”, the “effect on amount of Goα associated with MOR” value ([1]; 10 μM GTP added to DAMGO vs DAMGO alone) is reported as “did not alter” and the “additional increase in RGS4 co-immunoprecipitating with MOR” value ([1]; 10 μM GTP with 1 μM DAMGO vs DAMGO alone) is reported as 72% and 71.6%.

For `CN1CC[C@]23c4c5ccc(O)c4O[C@H]2[C@@H](O)C=C[C@H]3[C@H]1C5` [morphine], the “RGS4 mRNA levels in the locus coeruleus” value [2] is given as “doubled”.

With `Nc1nc2c(ncn2[C@@H]2O[C@H](COP(=O)(O)OP(=O)(O)O)[C@@H](O)[C@H]2O)c(=O)[nH]1` [GDP] the “effect on association of Goα with His6RGS4” value (Goα) was “failed to affect; also recorded: Neither 100 μM GDP nor 10 μM GTP affected; also recorded: neither GTP nor GDP had an effect” and the “effect on GTPγS-enhanced Goα binding to RGS4” value (Goα; 100 μM GDP with 0.3 μM GTPγS) was “blocked this effect; also recorded: prevented; also recorded: return to the control level”.

In the case of B1, the “fold increase of Goα bound to His6RGS4 with 0.3 uM GTPγS against control” value [3] is reported as about 3 fold.

With B2 the “stoichiometry N” value [4] was about 1.

With B3 the “amount of RGS4 co-immunoprecipitated with MOR” value ([1]; absence of GTPγS) was 9 ± 1.1 fmol, the “amount of RGS4 co-immunoprecipitated with MOR” value ([1]; presence of 1 μM GTPγS) was 28 fmol and 28.4 ± 5.4 fmol and the “ratio of MOR to RGS4 in the immunoprecipitate” value ([1]; presence of GTPγS) was 1–1. For the same molecule, the “effect on GTPγS-mediated inhibition of adenylyl cyclase activity” value (Go/Gi-type G proteins) was “failed to attenuate; also recorded: failed to affect; also recorded: had no effect”.
